Laboratory results taken from US12357598B2, “Treatment of neurodevelopmental disorders” (THE REGENTS OF THE UNIVERSITY OF CALIFORNIA, priority 2018, dated 2025).

Experiments:
[1] = tested on: pregnant ddY mice; assay: General data (mortality, body weight, behavioral abnormality) of mothers and offspring after maternal glyphosate exposure; type: in vivo, mouse; details: for Behavioral abnormality: juvenile offspring
Procedure: Treatment of glyphosate in drinking water into pregnant mice. Previous studies used drinking water containing 0.38% glyphosate (1% Roundup®) during pregnancy and lactation, equivalent to 50 mg/kg/day of glyphosate (1,2). This does correspond with 1/20 of the glyphosate no-observed-adverse-effect level, as described previously (3). Therefore, water or glyphosate [or 0.1, 0.25, 0.50, 0.75, 1.0% Roundup®, Nissan Chemical Corporation, Tokyo, Japan] were given to the pregnant mice from E5 to P21 (weaning). The male offspring were separated from their mothers at weaning (P21), and mice were caged each three-five in the groups in clear polycarbonate cage (22.5×33.8×14.0 cm). Mice were housed under controlled temperatures and 12 hour light/dark cycles (lights on between 07:00-19:00 h), with ad libitum food and water.
Treatment of TPPU. TPPU was dissolved in polyethylene glycol 400 (PEG 400: Tokyo Chemical Industry Co., Ltd, Tokyo, Japan). TPPU (3 mg/kg/day) or vehicle (5 ml/kg, PEG 400) was administered orally in the pregnant mice from E5 to P21. Behavioral tests of offspring were performed during juvenile stage (P28-P35) after maternal glyphosate exposure (FIG. 1A).

[2] = tested on: ddY mice; assay: NORT, offspring after maternal glyphosate exposure; type: in vivo, mouse; details: juvenile offspring, maternal 0.095% glyphosate
Procedure: Novel Object Recognition Test (NORT): Mice were habituated for 10 minutes in the test box for 3 straight days. At 4th day, two objects (differing in shape and color but of similar size) were placed in the box 35.5 cm apart (symmetrically), and each animal was allowed to explore in the box for 5 minutes. The animals were considered to be exploring the object when the head of the animal was both facing and within 2.54 cm of the object or when any part of the body, except for the tail was touching the object. The time that mice spent exploring each object was recorded. After training, mice were immediately returned to their home cages, and the box and objects were cleaned with 75% ethanol, to avoid any possible instinctive odorant cues. Retention tests were carried out at one-day intervals, following the respective training. During the retention test, each mouse was reintroduced into their original test box, and one of the training objects was replaced by a novel object. The mice were then allowed to explore freely for 5 minutes, and the time spent exploring each object was recorded. Throughout the experiments, the objects were counter-balanced, in terms of their physical complexity and emotional neutrality. […]

[3] = 0.038% glyphosate (0.1% Roundup)
[4] = 0.095% glyphosate (0.25% Roundup)
[5] = 0.19% glyphosate (0.50% Roundup)
[6] = 0.285% glyphosate (0.75% Roundup)

Structure (SMILES): O=C(O)CNCP(=O)(O)O [glyphosate]
- Alive number of offspring on P21 [1, 3]: 33
- Maternal mortality [1, 3]: 0%
- Number of offspring born [1, 3]: 33
- Offspring mortality [1, 3]: 0%
- Alive number of mothers on P0 ([1]; 0.038% glyphosate (0.1% Roundup), 3 mothers used): 3
- Alive number of offspring on P21 [1, 4]: 24
- Maternal mortality [1, 4]: 0%
- Number of offspring born [1, 4]: 30
- Offspring mortality [1, 4]: 20%
- Alive number of mothers on P0 ([1]; 0.095% glyphosate (0.25% Roundup), 3 mothers used): 3
- body weight of mothers at E17 ([1]; 0.095% glyphosate vs water exposure mothers): significantly lower
- Alive number of offspring on P21 [1, 5]: 2
- Maternal mortality [1, 5]: 20%
- Number of offspring born [1, 5]: 43
- Offspring mortality [1, 5]: 95.3%
- Alive number of mothers on P0 ([1]; 0.19% glyphosate (0.50% Roundup), 5 mothers used): 4
- Alive number of offspring on P21 [1, 6]: 4
- Maternal mortality [1, 6]: 25%
- Number of offspring born [1, 6]: 32
- Offspring mortality [1, 6]: 87.5%
- Alive number of mothers on P0 ([1]; 0.285% glyphosate (0.75% Roundup), 4 mothers used): 3
- Alive number of offspring on P21 ([1]; 0.38% glyphosate (1% Roundup)): 0
- Number of offspring born ([1]; 0.38% glyphosate (1% Roundup)): 0
- Maternal mortality ([1]; 0.38% glyphosate (1% Roundup) in drinking water from E5): 100%
- Alive number of mothers on P0 ([1]; 0.38% glyphosate (1% Roundup) in drinking water from E5, 4 mothers used): 0
- body weight of pregnant mice ([1]; glyphosate 0.038%-0.285%): increased gradually
- body weight of pregnant mice ([1]; high concentration (0.38%) glyphosate): not increased
- Behavioral abnormality ([1]; 0.038% glyphosate (0.1% Roundup), locomotion, three chamber test, forced swimming test): did not show any behavioral abnormality
- Behavioral abnormality [1, 4]: observed
- novel object recognition test (NORT) [2]: cognitive deficits
